Results on 10 compounds are retold here after patent publication US20100203084A1, “METHOD FOR TREATING PAIN OR OPIOID DEPENDENCE USING A SPECIFIC TYPE OF NON-OPIOID AGENT IN COMBINATION WITH A SELECTIVE EXCITATORY-OPIOID-RECEPTOR INACTIVATOR” (priority 2006, published 2010).

One data set concerns Swiss-Webster mice. The following applies: mouse, in vivo.
The subject of a further data set is rodents. As to conditions: high doses, administered immediately after training, rodents (ref. 20); cited from earlier work.
Data set [1] relates to chronic morphine-dependent mice. Briefly: naloxone-precipitated withdrawal hyperalgesia in chronic morphine-dependent mice (tail-flick). As to conditions: naltrexone 0.1 ng/kg with naloxone, FIG. 9.
The conditions of data set [2]: several species, including rat and human (ref. 20); cited from earlier work.
The next data set deals with rodents and humans. As to conditions: moderately low doses (˜1 μg/kg), rodents and humans (refs. 20-22); cited from earlier work.

Entries after “also recorded” stand apart in the source; their conditions may differ.

As to `NC(CCC(=O)O)C(=O)O` (racemic) [glutamic acid, dl-glutamic acid], in the data set with Swiss-Webster mice, the “duration of hyperalgesia, glutamic acid alone” value is reported as > 6 h and the “effect on tail-flick latencies, glutamic acid alone” value is “long-lasting hyperalgesia”.

`CC(C)Cn1c(=O)n(C)c(=O)c2[nH]cnc21` [IBMX, 3-isobutyl-1-methylxanthine]: in the data set on Swiss-Webster mice, the “duration of hyperalgesia, IBMX alone” value is > 3 h and the “effect on tail-flick latencies, IBMX alone” value is given as “long-lasting hyperalgesia”. Further, in the data set on rodents, the “effect on memory in passive avoidance tasks” value is “improve memory”.

With `N[C@@H](CCC(=O)O)C(=O)[O-].[Na+]` [MSG, monosodium glutamate], in the data set on Swiss-Webster mice, the “effect on tail-flick latencies, MSG alone, 10-fold-higher dose” value is “evokes hyperalgesia” and the “effect on tail-flick latencies, MSG alone, lower dose” value was “does not evoke significant hyperalgesia”.

Take `CN[C@H](CC(=O)O)C(=O)O` [NMDA, N-methyl-D-aspartate]: in the data set with Swiss-Webster mice, the “duration of hyperalgesia, NMDA alone” value was > 5 h and the “effect on tail-flick latencies, NMDA alone” value was “decreases in tail-flick latencies (indicating hyperalgesia)”.

Take `O=C1CC[C@@]2(O)[C@H]3Cc4ccc(O)c5c4[C@@]2(CCN3CC2CC2)[C@H]1O5` [NTX, naltrexone]: in the data set with Swiss-Webster mice, the “effect of cotreatment with 1 pg/kg rolipram in normal mice” value is recorded as “prominent, long-lasting analgesia”; the “effect of delayed high-dose NTX on analgesia from rolipram 1 μg/kg plus CTX-B” value is recorded as “rapidly blocked”; the “effect of delayed much higher dose of NTX in MSG + NTX cotreated mice” value was “blocked both hyperalgesia and analgesia”; the “effect of high-dose NTX on analgesia from glutamic acid cotreatment” value was “rapid attenuation of the initially prominent analgesia”. In the data set on Swiss-Webster mice, the “effect of high-dose NTX on analgesia from non-narcotic cotreatment” value is recorded as “antagonized rapidly”; the “effect of second dose of NTX alone 24 h after initial cotreatment with rolipram 1 μg/kg” value is “evoked significant analgesia”; the “effect of second injection of high-dose NTX on NMDA-evoked hyperalgesia and NMDA+NTX analgesia” value was “rapid attenuation of the initially prominent hyperalgesia”; the “effect of ultra-low-dose NTX co-administered with thousand- to million-fold lower dose of rolipram” value was “remarkable degree of opioid receptor-mediated, long-lasting analgesia”. For the same compound, in the data set with Swiss-Webster mice, the “effect of ultra-low-dose NTX cotreatment on hyperalgesia evoked by glutamate, NMDA, IBMX or rolipram” value was “rapidly blocked and reversed to prominent, long-lasting analgesia”; the “effect on tail-flick latencies, cotreatment with 1 mg/kg NMDA” value is “blocked NMDA-evoked hyperalgesia, and resulted in prominent analgesia”; the “effect on tail-flick latencies, cotreatment with 1 mg/kg glutamic acid” value was “blocked glutamic-acid-evoked hyperalgesia, and resulted in prominent analgesia”; the “effect on tail-flick latencies, cotreatment with 10 mg/kg IBMX, high-dose NTX” value is “not only blocked IBMX-evoked hyperalgesia, but also blocked onset of analgesia during the first hour after dosing”. For the same compound, in the data set on Swiss-Webster mice, the “effect on tail-flick latencies, cotreatment with MSG 1 mg/kg” value was “Prominent analgesia”; the “effect on tail-flick latencies, cotreatment with rolipram 1 pg/kg” value is “remarkably similar degree of analgesia”; the “effect on tail-flick latencies, cotreatment with rolipram 1 μg/kg” value is “results in prominent analgesia”; the “effect on tail-flick latencies, inactivator alone (control)” value is recorded as “no alterations in tail-flick latencies”. Further, in the data set on Swiss-Webster mice (sc), the “effect on tail-flick latencies, cotreatment with 10 mg/kg IBMX, ultra-low-dose NTX” value is “blocked IBMX-evoked hyperalgesia, and resulted in prominent analgesia”; the “effect on tail-flick latencies, cotreatment with 10-fold-higher dose of MSG” value was “Prominent analgesia”. The “effect of ultra-low-dose naltrexone cotreatment on naloxone-precipitated withdrawal hyperalgesia” value in data set [1] was “rapidly converted to analgesia”.

For the compound `C[C@H](NC(=O)[C@@H](CC(=O)NO)Cc1ccccc1)C(=O)O` [kelatorphan], in the data set on Swiss-Webster mice, the “effect of kelatorphan on analgesic response to 1 pg/kg rolipram plus 0.1 ng/kg NTX” value was “prolongs the duration of the analgesic response”; the “effect on baseline tail-flick latency, kelatorphan alone” value is reported as “does not alter baseline tail-flick latency”; the “effect on tail-flick latencies, kelatorphan 0.1 mg/kg cotreatment with rolipram 1 pg/kg” value is on record as “prominent analgesia”; the “effect on tail-flick latencies, kelatorphan 1 mg/kg cotreatment with rolipram 1 pg/kg” value is on record as “elicits prominent analgesia”.

In the case of `Oc1ccc2c3c1O[C@H]1c4[nH]c5c(c4C[C@@]4(O)[C@@H](C2)N(CC2CC2)CC[C@]314)C[C@@]1(O)[C@H]2Cc3ccc(O)c4c3[C@@]1(CCN2CC1CC1)[C@H]5O4` [nor-BNI, nor-binaltorphimine], the “effect on tail-flick latencies, ultra-low-dose mu- or kappa-opioid receptor antagonist cotreatment with rolipram” value in the data set on Swiss-Webster mice is reported as “larger magnitude of analgesia”.

`CCOC(=O)C1=C[C@@H](OC(CC)CC)[C@H](NC(C)=O)[C@@H](N)C1` [oseltamivir]: the “effect of cotreatment with 1 pg/kg rolipram in normal mice” value in the data set on Swiss-Webster mice was “prominent, long-lasting analgesia”.

As to `COc1ccc(C2CNC(=O)C2)cc1OC1CCCC1` (stereo not drawn) [rolipram], in the data set with Swiss-Webster mice, the “effect on tail-flick latencies, rolipram alone, 1 pg/kg” value was “no detectable hyperalgesic effect; also recorded: does not alter baseline tail-flick latency”; the “effect on tail-flick latencies, rolipram alone, 1 μg/kg” value is “acute hyperalgesic effects”; the “persistence of effect of a single low dose of rolipram” value is “still effective for more than one day”. The “absorption after oral administration” value in data set [2] is “absorbed fully and rapidly”. Also, the “effect on memory in passive avoidance tasks” value in the data set on rodents is given as “improve memory”. In the data set with rodents and humans, the adverse side-effects result is “relatively moderate adverse side-effects” and the “effect on memory behavior” value is recorded as “significant enhancement in memory behavior”.

On to `COC(=O)/C=C/C(=O)N[C@@H]1CC[C@@]2(O)[C@H]3Cc4ccc(O)c5c4[C@@]2(CCN3CC2CC2)[C@H]1O5` [β-FNA, β-funaltrexamine], for which, in the data set with Swiss-Webster mice, the “effect on tail-flick latencies, ultra-low-dose mu- or kappa-opioid receptor antagonist cotreatment with rolipram” value is “block the acute hyperalgesic effects of rolipram and result in prominent analgesia”.
